Measurements published in US11597702B2, “Substituted pyrazoles FFA4/GPR120 receptor agonists” (AXXAM S.P.A., priority 2018, dated 2023).

Biological target: T1, GPR120 (Homo sapiens, UniProt Q5NUL3)
T1 construct: expressed in transfected cells; host or cells: CHO mitoPhotinaGPR120 cells
T1 sequence (Q5NUL3 1-361): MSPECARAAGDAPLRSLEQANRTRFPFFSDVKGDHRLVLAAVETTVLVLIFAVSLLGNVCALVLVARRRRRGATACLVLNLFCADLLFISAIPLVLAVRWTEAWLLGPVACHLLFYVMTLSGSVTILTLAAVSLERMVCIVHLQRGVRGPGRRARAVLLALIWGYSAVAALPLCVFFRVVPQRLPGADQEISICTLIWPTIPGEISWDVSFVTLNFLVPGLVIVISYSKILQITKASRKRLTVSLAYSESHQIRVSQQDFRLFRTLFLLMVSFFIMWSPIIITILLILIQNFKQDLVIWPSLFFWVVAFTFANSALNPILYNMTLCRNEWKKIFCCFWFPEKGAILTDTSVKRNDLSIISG
Assay: GPR120 agonism in CHO mitoPhotinaGPR120 cell based assay with fluorescent (Fluo-8 calcium, FLIPRTetra) readout, Agonist Mode, dose response
Details: CHO mitoPhotinaGPR120 cells, Fluo-8 No Wash Ca2+ dye, dose response in quadruplicate, 0.0033% fatty acid free BSA

| EC50 | Compound |
| --- | --- |
| 0.22 µM | Cc1nn(-c2ccc(Cl)cn2)c(COc2c(F)cc(CCCO)cc2F)c1C#N [Example 166, 1-(5-chloro-2-pyridyl)-5-[[2,6-difluoro-4-(3-hydroxypropyl)phenoxy]methyl]-3-methyl-pyrazole-4-carbonitrile] |
| 0.21 µM | COc1ccc(-n2nc(C)c(C#N)c2COc2c(F)cc(CCCO)cc2F)nc1 [Example 167, 5-[[2,6-difluoro-4-(3-hydroxypropyl)phenoxy]methyl]-1-(5-methoxy-2-pyridyl)-3-methyl-pyrazole-4-carbonitrile] |
| 4.48 µM | COc1ccc(S(=O)(=O)Nc2c(C)cc(C)cc2C)cc1 [GSK137639A, reference compound] |
